Measured values: patent US20110294794A1, “TREATMENT OF PROTEINOPATHIES USING A FARNESYL TRANSFERASE INHIBITOR” (Link Medicine Corporation, priority 2008, published 2011)
Entries after “also recorded” stand apart in the source; their conditions may differ.

Tests used:
α-synuclein = experiment: Masliah D-line human WT α-synuclein transgenic mouse, α-synuclein immunoreactivity / ELISA; format: in vivo; conditions: for α-synuclein deposition in cortex and hippocampus: three months (FIG. 9a); for number of α-synuclein positive neurons in the brain: higher-dose trial (FIG. 2A)
Method: Animals and treatments: Male and female human WT alpha-synuclein over-expressing transgenic mice^32 at 6 months of age were given vehicle (10% beta-cyclodextrin) or LNK-754-TS (0.09, 0.9 and 9 mg/kg) per oral gavage twice daily for 3 months or animals at 7 months of age were given vehicle (2.5% beta-cyclodextrin) or LNK-754-TS (2 mg/kg) once every three days for 3 months. Male and female TAU transgenic mice expressing TAU441 bearing the missense mutations V337M^50 and R406W under the control of the murine Thy-1 promoter with a CB6xC57BL/6 background were 5 months old at the time when the oral treatment for three months with LNK-754-TS (0.9 and 0.09 mg/kg) as well as vehicle (2.5% beta-cyclodextrin) was started. Female human APP/PS1 (APP (London V7171)/PS1(A246E)) over-expressing transgenic mice were treated with LNK-754-TS (0.9 mg/kg) or vehicle (2.5% beta-cyclodextrin) for 2 months or 12 days.
Immunohistochemistry and quantification of stained cells: For evaluation of α-synuclein immunoreactivity (IR), 5 sagittal cryo-cut sections (10 μm slice thickness) from five different layers were used for counting of IR cells in the cortex and hippocampus. Brain sections were stained with a monoclonal human α-synuclein specific antibody (Alexis®; Cat# 804-258-L001; dilution 1:5), followed by a secondary Ab Cy 2-Goat Anti-Rat (Jackson ImmunoResearch®; dilution 1:200). IR positive cells were quantified using specialized image analysis software (Image Pro Plus, version 4.5.1.29). For Tau transgenic animals, 5 μm thick coronal paraffin sections were stained with the monoclonal mouse anti-human TAU-antibodies (AT180—1:100; HT—1:500) and visualized using an anti-mouse Cy3 secondary antibody (1:500, Jackson laboratories®). Images were evaluated with ImageProPlus (version 6.2) image analysis software. For APP/PS1 transgenic animals sagittal hemisections (40 μm) were collected and processed for Aβ immunohistochemistry using an 6E10 antibody, Thioflavin-S staining Primary antibodies were detected by the ABC method.
ELISA quantification of α-Synuclein in the α-Synuclein transgenic animals: Brain homogenate was centrifuged and the supernatant saved as fraction F1. The pellet was washed then resuspended and saved as fraction F2. Plates (Nunc, 464718) were coated with SYN-1 (1:1000, BD Transduction Labs, 610787). Monomeric recombinant α-synuclein was included as an internal standard. Biotinylated antibody FL-140 (1:300, Santa Cruz Biotechnology, sc-10717-B) and ExtrAvidin-Alkaline phosphatase (3:5000, Sigma, E2636) was added followed by pNPP substrate solution (Sigma, N1891). Raw absorbance (405 nm) was then normalized to the total protein concentration of each sample. In the APP/PS1 transgenic animal, brains were homogenized and the supernatant, Faction 1, was separated from the pellet. The pellets were further processed with addition of NP40 and Triton X-100. The supernatant was separated from the pellet as the insoluble membrane, Fraction 2, and was dissolved in 8M Guanidine. To quantify the amount of human Aβ-40 and Aβ-42, ELISA kits were used (The Genetics Company, Zurich, Switzerland).
In FIG. 2 is shown efficacy data for LNK-754-TS in the Masliah D-line transgenic α-synuclein mouse (an accepted model of synucleinopathies). Two trials are shown, the first (FIG. 2A) at higher doses of LNK-754-TS: 45 mg/kg and 9 mg/kg. […] The second trial (FIG. 2B) explores the low dose range for efficacy in the α-synuclein models. […]
After dosing with LNK-754-TS for three months (twice daily at 0.09 mg/kg or 0.9 mg/kg), α-synuclein accumulation in the brain was analyzed by immunohistochemical (human specific α-synuclein immunoreactivity) and biochemical (α-synuclein ELISA) means. […]

Ras = experiment: Soluble/cytoplasmic Ras level in frontal cortex of alpha-synuclein transgenic mice (immunoblot); format: in vivo, mouse; conditions: 0.09 mg/kg or 9 mg/kg b.i.d., 3 months
Method: The level of inhibition of Ras in brain by LNK-754-TS, dosed at an efficacious dose for efficacy in animal models of proteinopathy-dependent neurodegeneration, was investigated. Alpha-synuclein transgenic mice were treated for 3 months b.i.d. with vehicle or LNK-754-TS at 0.09 mg/kg or 9 mg/kg. Cortical tissue was extracted and homogenized, followed by isolation of soluble/cytosolic proteins in detergent-free buffer (50 mM Tris-HCl pH 7.4, 140 mM NaCl, 2 mM EDTA, Protease inhibitor cocktail) by centrifugation. 15 micrograms of protein lysate was analyzed per lane of SDS-PAGE gel, and immunoblotted for Ras and actin (FIG. 6). Densitometry was used to quantify the Ras/actin ratio for each sample, and results were plotted (FIG. 7). […] This contrasts with what is observed in xenograft cancer models, where inhibition of Ras farnesylation by high dose FTIs is directly correlated with efficacy (FIG. 3 and Example 3).

aged non-transgenic rats = experiment: Morris water maze in aged non-transgenic rats; format: in vivo, rat; conditions: aged rats (22 months old), 0.3 mg/kg and 0.9 mg/kg once every 24 hours
Source text: Morris water maze (MWM) analysis of cognitive performance: In APP/PS1 transgenic animals, swimming behavior in a Morris Water Maze was videotaped and analyzed (Ethovision, Noldus, Wageningen, Netherlands). For mice, a place navigation test was used to locate the hidden platform in five blocks of three trials over three consecutive days. Each trial consists of a forced swim test of maximum 120 seconds, followed by 60 seconds of rest. The time each mouse needed for location of the platform was measured. For rats, a cued learning phase was first conducted, consisting of 3 trials per day for 5 days, using a visible platform of varying location. Each trial consisted of a forced swim test of maximum 60 seconds, followed by 10 minutes of rest. The time and path length each rat needed to locate the platform was measured.
In order to rule out the possibility that the rapid observed improvement in cognition described above arose from an alternative, transgene-independent mechanism, aged non-transgenic rats (22 months old) were treated with LNK-754-TS (0.3 mg/kg and 0.9 mg/kg, once every 24 hours) and their cognitive performance was measured by MWM and compared to that of younger rats (3 months old) of the same strain.

[1] = three-month dosing trial (FIG. 9c)
[2] = twice daily at 0.09 mg/kg or 0.9 mg/kg, three months

With `C#Cc1cccc(-c2cc(=O)n(C)c3ccc([C@](O)(c4ccc(Cl)cc4)c4cncn4C)cc23)c1` [LNK-754-TS, (R)-6-[(4-chlorophenyl)-hydroxyl-(1-methyl-1-H-imidazol-5-yl)-methyl]-4-(3-ethynylphenyl)-1-methyl-2-(1H)-quinonlinone (2S,3S)-dihydroxybutanedioate] the “α-synuclein deposition in cortex and hippocampus” value (α-synuclein; 0.09 mg/kg twice every 24 hr) was “halts deposition”, the “α-synuclein deposition in cortex and hippocampus” value (α-synuclein; 0.9 mg/kg twice every 24 hr) was “halts deposition” and the “cortical α-synuclein immunoreactivity vs. baseline and vehicle” value (α-synuclein; 2 mg/kg once every 72 hr, three months (FIG. 9b)) was “significantly lower; also recorded: significantly reduces”. For the same compound, the “number of α-synuclein positive neurons in the brain” value (α-synuclein; 9 mg/kg PO BID 3 months) was “significant reduction”, the “number of α-synuclein IR cells in the hippocampus vs. saline” value (α-synuclein; 9 mg/kg group, PO BID 3 months, lower-dose trial (FIG. 2B)) was “significance level was not reached” and the “number of α-synuclein positive neurons in the brain” value (α-synuclein; 45 mg/kg PO BID 3 months) was “not significantly effective”. For the same compound, the “efficacious dose in the α-synuclein transgenic mouse” value (α-synuclein; PO BID 3 months) was at most 9 mg/kg, the “number of α-synuclein IR cells in the hippocampus vs. saline” value (α-synuclein; all applied dosages except 9 mg/kg, PO BID 3 months (FIG. 2B)) was “significant decrease” and the “effect on neuronal architecture (NeuN)” value (α-synuclein; [1]) was “lack of effect”. For the same compound, the “reduction of α-synuclein immunoreactivity, representative hippocampal slices” value (α-synuclein; [1]) was “ca. 50%”, the “astrocytosis: GFAP staining” value (α-synuclein; [2]) was “unchanged” and the drug-dependent toxicity (α-synuclein; [2]) was “None of the treated animals showed any evidence”. The “neuronal loss: NeuN staining and brain volume” value (α-synuclein; [2]) was “unchanged”, the “synaptic damage: synaptophysin staining” value (α-synuclein; [2]) was “unchanged” and the “α-synuclein accumulation in the brain (immunoreactivity and ELISA)” value (α-synuclein; [2]) was “clearly reduced”. For the same compound, the “effect on Ras farnesylation in brain” value (Ras) was “no significant effect”, the “soluble Ras/actin level in cortex vs. vehicle” value (Ras) was “No significant differences” and the “cognitive performance (place learning curves, probe tests)” value (aged non-transgenic rats) was “no significant cognitive improvement”.
